The NIST ThermoML archive (doi:10.1021/je900210h)
“And” between values parts separate entries of the source, which are not always exact repeats. Identical values can stand only once.

Details: Fluid (supercritical or subcritical phases), Coaxial cylinder method

FCC(F)(F)F [1,1,1,2-tetrafluoroethane]
Details	thermal conductivity
375.76 K, 4223 kPa	0.0752 W/m/K
375.77 K, 4161 kPa	0.0731 W/m/K
375.79 K, 4241 kPa	0.0673 W/m/K
375.8 K, 3504 kPa	0.029 W/m/K
375.8 K, 4150 kPa	0.0656 W/m/K
375.81 K, 3534 kPa	0.0279 W/m/K
375.82 K, 4254 kPa	0.0627 W/m/K
375.83 K, 4141 kPa	0.06 W/m/K
375.84 K, 4279 kPa	0.0589 W/m/K
375.85 K, 4296 kPa	0.0573 W/m/K
375.86 K, 4316 kPa	0.0558 W/m/K
375.86 K, 4334 kPa	0.0551 W/m/K
375.87 K, 3165 kPa	0.0261 W/m/K
375.87 K, 3264 kPa	0.0264 W/m/K
375.87 K, 4132 kPa	0.0548 W/m/K
375.87 K, 4349 kPa	0.0546 W/m/K
375.87 K, 4363 kPa	0.0539 W/m/K
375.88 K, 4387 kPa	0.0535 W/m/K
375.88 K, 4432 kPa	0.0526 W/m/K
375.88 K, 4461 kPa	0.0526 W/m/K and 0.0524 W/m/K
375.89 K, 4451 kPa	0.0521 W/m/K
375.89 K, 4630 kPa	0.052 W/m/K
375.9 K, 2970 kPa	0.0251 W/m/K
375.92 K, 4120 kPa	0.0485 W/m/K
375.93 K, 2700 kPa	0.0265 W/m/K
375.94 K, 2662 kPa	0.024 W/m/K
375.95 K, 2429 kPa	0.0235 W/m/K
375.95 K, 3993 kPa	0.0374 W/m/K
375.99 K, 3936 kPa	0.0349 W/m/K
375.99 K, 4072 kPa	0.0417 W/m/K
376.01 K, 3908 kPa	0.034 W/m/K
376.02 K, 4205 kPa	0.0817 W/m/K
376.02 K, 4207 kPa	0.0822 W/m/K
376.02 K, 4209 kPa	0.0826 W/m/K
376.02 K, 4213 kPa	0.0826 W/m/K
376.02 K, 4217 kPa	0.0821 W/m/K
376.03 K, 4203 kPa	0.0807 W/m/K
376.03 K, 4222 kPa	0.0806 W/m/K
376.03 K, 4225 kPa	0.0797 W/m/K
376.04 K, 1048 kPa	0.0214 W/m/K
376.04 K, 4039 kPa	0.0379 W/m/K
376.04 K, 4200 kPa	0.0784 W/m/K
376.04 K, 4230 kPa	0.0774 W/m/K
376.04 K, 4233 kPa	0.0766 W/m/K
376.05 K, 773 kPa	0.0212 W/m/K
376.05 K, 4198 kPa	0.0754 W/m/K
376.06 K, 524 kPa	0.0208 W/m/K
376.06 K, 4011 kPa	0.0362 W/m/K
376.06 K, 4242 kPa	0.0737 W/m/K
376.07 K, 200 kPa	0.0205 W/m/K
376.07 K, 4190 kPa	0.0693 W/m/K
376.07 K, 4250 kPa	0.0708 W/m/K
376.08 K, 3975 kPa	0.0352 W/m/K
376.08 K, 4260 kPa	0.0686 W/m/K
376.09 K, 4270 kPa	0.0669 W/m/K
376.09 K, 4280 kPa	0.0656 W/m/K
376.1 K, 3941 kPa	0.0342 W/m/K
376.1 K, 4180 kPa	0.0622 W/m/K
376.1 K, 4300 kPa	0.0638 W/m/K
376.11 K, 3913 kPa	0.0333 W/m/K
376.11 K, 4320 kPa	0.0624 W/m/K
376.14 K, 5520 kPa	0.054 W/m/K
376.14 K, 5651 kPa	0.0543 W/m/K
376.14 K, 5740 kPa	0.0545 W/m/K
376.15 K, 4789 kPa	0.0527 W/m/K
376.15 K, 5037 kPa	0.0529 W/m/K
376.15 K, 5092 kPa	0.0531 W/m/K
376.15 K, 5216 kPa	0.0534 W/m/K
376.15 K, 5296 kPa	0.0536 W/m/K
376.16 K, 4754 kPa	0.0523 W/m/K
376.19 K, 4160 kPa	0.0503 W/m/K
376.21 K, 3800 kPa	0.0312 W/m/K
376.21 K, 4150 kPa	0.048 W/m/K
376.23 K, 2350 kPa	0.0256 W/m/K
376.23 K, 3734 kPa	0.0301 W/m/K
376.26 K, 4264 kPa	0.081 W/m/K
376.26 K, 4360 kPa	0.0608 W/m/K
376.26 K, 4390 kPa	0.06 W/m/K
376.27 K, 4230 kPa	0.0811 W/m/K
376.28 K, 4218 kPa	0.0789 W/m/K
376.28 K, 4267 kPa	0.0803 W/m/K
376.29 K, 4214 kPa	0.078 W/m/K
376.29 K, 4279 kPa	0.0786 W/m/K
376.31 K, 4210 kPa	0.077 W/m/K
376.33 K, 3030 kPa	0.0242 W/m/K
376.34 K, 4199 kPa	0.074 W/m/K
376.34 K, 4305 kPa	0.0746 W/m/K
376.38 K, 2200 kPa	0.0252 W/m/K
376.38 K, 4192 kPa	0.0712 W/m/K
376.4 K, 3872 kPa	0.0323 W/m/K
376.41 K, 3872 kPa	0.0317 W/m/K
376.41 K, 4184 kPa	0.0684 W/m/K
376.42 K, 3872 kPa	0.0315 W/m/K
376.44 K, 3783 kPa	0.0303 W/m/K
376.44 K, 4178 kPa	0.0661 W/m/K
376.44 K, 4354 kPa	0.0663 W/m/K
376.46 K, 3783 kPa	0.0297 W/m/K
376.48 K, 3675 kPa	0.0288 W/m/K
376.48 K, 4174 kPa	0.0639 W/m/K
376.5 K, 3593 kPa	0.0281 W/m/K
376.51 K, 2527 kPa	0.0229 W/m/K
376.51 K, 3504 kPa	0.0275 W/m/K
376.51 K, 4168 kPa	0.0618 W/m/K
376.52 K, 4404 kPa	0.0612 W/m/K
376.53 K, 3468 kPa	0.0269 W/m/K
376.54 K, 4470 kPa	0.059 W/m/K
376.54 K, 4580 kPa	0.0586 W/m/K
376.55 K, 3302 kPa	0.0263 W/m/K
376.55 K, 4165 kPa	0.0598 W/m/K
376.56 K, 3210 kPa	0.0257 W/m/K
376.57 K, 4451 kPa	0.0587 W/m/K
376.58 K, 4158 kPa	0.0579 W/m/K
376.59 K, 3210 kPa	0.0248 W/m/K
376.6 K, 3210 kPa	0.0246 W/m/K
376.61 K, 3210 kPa	0.0244 W/m/K
376.61 K, 4150 kPa	0.0562 W/m/K
376.65 K, 4147 kPa	0.0545 W/m/K
376.68 K, 4141 kPa	0.0524 W/m/K
376.68 K, 4680 kPa	0.0583 W/m/K
376.69 K, 4140 kPa	0.0427 W/m/K
376.73 K, 4100 kPa	0.0395 W/m/K
376.78 K, 4040 kPa	0.0364 W/m/K
376.81 K, 3990 kPa	0.0346 W/m/K
376.82 K, 4117 kPa	0.047 W/m/K
376.82 K, 4820 kPa	0.0577 W/m/K
376.82 K, 4860 kPa	0.0575 W/m/K
376.87 K, 3880 kPa	0.0318 W/m/K
376.87 K, 4101 kPa	0.0452 W/m/K
376.87 K, 4504 kPa	0.0571 W/m/K
376.89 K, 4548 kPa	0.0562 W/m/K
376.9 K, 3800 kPa	0.0304 W/m/K
376.92 K, 3740 kPa	0.0295 W/m/K
376.95 K, 3650 kPa	0.0285 W/m/K
376.96 K, 2027 kPa	0.0218 W/m/K
376.98 K, 3510 kPa	0.0274 W/m/K
377.01 K, 4289 kPa	0.072 W/m/K
377.01 K, 4294 kPa	0.0724 W/m/K
377.01 K, 4307 kPa	0.0724 W/m/K
377.01 K, 4309 kPa	0.072 W/m/K
377.01 K, 4312 kPa	0.0717 W/m/K
377.02 K, 4322 kPa	0.0706 W/m/K
377.02 K, 4332 kPa	0.0691 W/m/K
377.03 K, 4343 kPa	0.0674 W/m/K
377.04 K, 4356 kPa	0.0661 W/m/K
377.05 K, 4380 kPa	0.0636 W/m/K
377.05 K, 4384 kPa	0.0634 W/m/K
377.06 K, 4397 kPa	0.0625 W/m/K
377.06 K, 4417 kPa	0.0617 W/m/K
377.07 K, 4439 kPa	0.0606 W/m/K
377.07 K, 4473 kPa	0.06 W/m/K
377.08 K, 4495 kPa	0.0595 W/m/K
377.08 K, 4538 kPa	0.0587 W/m/K
377.17 K, 4275 kPa	0.0671 W/m/K
377.18 K, 4270 kPa	0.0648 W/m/K
377.19 K, 4266 kPa	0.063 W/m/K
377.24 K, 4249 kPa	0.0555 W/m/K
377.26 K, 4241 kPa	0.0529 W/m/K
377.27 K, 4235 kPa	0.0513 W/m/K
377.29 K, 4226 kPa	0.0494 W/m/K
377.32 K, 4211 kPa	0.0466 W/m/K
377.36 K, 4613 kPa	0.0583 W/m/K
377.36 K, 4653 kPa	0.0578 W/m/K
377.36 K, 4697 kPa	0.0578 W/m/K
377.36 K, 4760 kPa	0.0576 W/m/K
377.37 K, 4836 kPa	0.0569 W/m/K
377.37 K, 4907 kPa	0.0562 W/m/K
377.51 K, 4164 kPa	0.0415 W/m/K
377.55 K, 4126 kPa	0.039 W/m/K
377.58 K, 4079 kPa	0.0366 W/m/K
377.73 K, 4701 kPa	0.055 W/m/K
377.83 K, 4369 kPa	0.0678 W/m/K
377.83 K, 4381 kPa	0.0681 W/m/K
377.83 K, 4390 kPa	0.0681 W/m/K
377.83 K, 4400 kPa	0.0678 W/m/K
377.84 K, 4360 kPa	0.0668 W/m/K
377.84 K, 4411 kPa	0.0668 W/m/K
377.84 K, 4420 kPa	0.0658 W/m/K
377.85 K, 4351 kPa	0.0652 W/m/K
377.85 K, 4432 kPa	0.0652 W/m/K
377.85 K, 4441 kPa	0.064 W/m/K
377.86 K, 4451 kPa	0.0631 W/m/K
377.86 K, 4460 kPa	0.0623 W/m/K
377.86 K, 4997 kPa	0.0548 W/m/K
